Assay results: ChEMBL document CHEMBL5244275, “Geminal Diheteroatomic Motifs: Some Applications of Acetals, Ketals, and Their Sulfur and Nitrogen Homologues in Medicinal Chemistry and Drug Design” (J Med Chem, 2021)
In brackets after ≈: the same amount, converted by molar mass.

Experiments:
[1] = Inhibition of Acinetobacter baumannii beta-lactamase OXA-24
[2] = Inhibition of Acinetobacter baumannii beta-lactamase OXA-143
[3] = Inhibition of Acinetobacter baumannii beta-lactamase OXA-235
[4] = Stability of the compound assessed as compound hydrolysis by measuring rate constant; type: physicochemical
[5] = Antiplatelet activity in human platelet rich plasma assessed as platelet aggregation; type: functional, cell-free
[6] = Stability of the compound assessed as compound hydrolysis by measuring relative rate constant by dilatometric method; type: physicochemical
[7] = Dissociation constant, pKa of the compound; type: physicochemical
[8] = Drug degradation in citrate buffer at pH 8.5 measured after 18 hrs; type: physicochemical; conditions: read-out: Drug degradation
[9] = Drug degradation in citrate buffer at pH 4 measured after 18 hrs; type: physicochemical; conditions: read-out: Drug degradation
[10] = Solubility of the compound at pH 7.4; type: physicochemical; conditions: buffer
[11] = Clearance in rat plasma assessed as half-life; type: ADME, cell-free
[12] = Clearance in dog plasma assessed as half-life; type: ADME, cell-free, Canis lupus familiaris
[13] = target: Muscarinic acetylcholine receptor M2 (Homo sapiens, UniProt P08172); test: Antagonist activity at muscarinic M2 receptor (unknown origin) assessed as inhibition constant
[14] = Oral bioavailability in mouse; type: ADME, organism-based; conditions: in vivo
[15] = Ratio of drug concentration in brain to plasma in mouse at 30 mg/kg, po measured after 6 hrs; type: ADME, organism-based; conditions: read-out: BPR
[16] = target: Amyloid-beta precursor protein (Homo sapiens, UniProt P05067); test: Inhibition of amyloid beta (1 to […] ) (unknown origin)
[17] = target: Polymerase acidic protein (Influenza A virus (A/Puerto Rico/8/1934(H1N1)), UniProt P03433); test: Inhibition of Influenza A virus CEN
[18] = Half-life in human; type: ADME
[19] = system: Plasmodium falciparum; test: Antiplasmodial activity against Plasmodium falciparum FCB1 assessed as inhibition of parasite growth; type: functional, organism-based
[20] = Antiplasmodial activity against Plasmodium berghei NK 173 infected in ICR (CD-1) mouse assessed as inhibition of parasite growth administered intraperitoneally for four days; conditions: NK 173, 96 h
[21] = Stability of the compound at pH 2 assessed as half-life; type: physicochemical; conditions: buffer
[22] = target: Sterol O-acyltransferase 1 (Homo sapiens, UniProt P35610); test: Inhibition of ACAT in human THP-1; type: cell-based
[23] = Clearance in Chimpanzee at 0.5 mg/kg, iv bolus injection; type: ADME, organism-based, Pan troglodytes; conditions: in vivo
[24] = system: Candida albicans; test: Antifungal activity against Candida albicans GS; type: functional, organism-based
[25] = system: Candida albicans; test: Fungicidal activity against Candida albicans; type: functional
[26] = Clearance in Chimpanzee at 0.5 mg/kg administered as iv infusion; type: ADME, organism-based, Pan troglodytes; conditions: in vivo
[27] = system: Human immunodeficiency virus 1; test: microbe, parasite or virus in culture; conditions: Human immunodeficiency virus 1, LAV
[28] = system: Human immunodeficiency virus 1; test: Antiviral activity against HIV-1 RF; type: functional, organism-based; conditions: Human immunodeficiency virus 1, RF
[29] = Drug excretion in human urine assessed as unchanged drug excreted; type: ADME; conditions: read-out: Drug excretion
[30] = Half-life in human plasma; type: ADME
[31] = Oral bioavailability in human; type: ADME, organism-based; conditions: in vivo
[32] = system: Mus musculus; test: Anticonvulsant activity in MES induced mouse model of seizure at 10 mg/kg, po measured after 4 hrs relative to control; type: functional
[33] = target: Sodium/glucose cotransporter 2 (Homo sapiens, UniProt P31639); test: Inhibition of human SGLT2
[34] = Drug metabolism at pH 2 assessed as parent compound remaining measured after 120 mins; type: physicochemical; conditions: read-out: Drug metabolism
[35] = species on record: Mus musculus; test: Analgesic activity in mouse assessed as protection against phenylbenzoquinone-induced writhing; type: functional

Muscarinic acetylcholine receptor M2, sequence (P08172 whole entry): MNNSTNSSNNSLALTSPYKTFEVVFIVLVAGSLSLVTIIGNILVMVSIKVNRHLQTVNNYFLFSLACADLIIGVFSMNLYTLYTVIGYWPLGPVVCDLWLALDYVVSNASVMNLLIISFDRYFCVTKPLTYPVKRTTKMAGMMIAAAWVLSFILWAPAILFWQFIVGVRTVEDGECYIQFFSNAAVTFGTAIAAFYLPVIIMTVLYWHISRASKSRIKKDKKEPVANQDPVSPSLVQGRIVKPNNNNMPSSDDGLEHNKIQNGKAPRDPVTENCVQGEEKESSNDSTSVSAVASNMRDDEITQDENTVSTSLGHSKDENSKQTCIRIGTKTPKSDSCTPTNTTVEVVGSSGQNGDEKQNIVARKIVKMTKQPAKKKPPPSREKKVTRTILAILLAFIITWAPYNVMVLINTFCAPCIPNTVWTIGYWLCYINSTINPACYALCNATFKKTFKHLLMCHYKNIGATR
Sterol O-acyltransferase 1, sequence (P35610 whole entry): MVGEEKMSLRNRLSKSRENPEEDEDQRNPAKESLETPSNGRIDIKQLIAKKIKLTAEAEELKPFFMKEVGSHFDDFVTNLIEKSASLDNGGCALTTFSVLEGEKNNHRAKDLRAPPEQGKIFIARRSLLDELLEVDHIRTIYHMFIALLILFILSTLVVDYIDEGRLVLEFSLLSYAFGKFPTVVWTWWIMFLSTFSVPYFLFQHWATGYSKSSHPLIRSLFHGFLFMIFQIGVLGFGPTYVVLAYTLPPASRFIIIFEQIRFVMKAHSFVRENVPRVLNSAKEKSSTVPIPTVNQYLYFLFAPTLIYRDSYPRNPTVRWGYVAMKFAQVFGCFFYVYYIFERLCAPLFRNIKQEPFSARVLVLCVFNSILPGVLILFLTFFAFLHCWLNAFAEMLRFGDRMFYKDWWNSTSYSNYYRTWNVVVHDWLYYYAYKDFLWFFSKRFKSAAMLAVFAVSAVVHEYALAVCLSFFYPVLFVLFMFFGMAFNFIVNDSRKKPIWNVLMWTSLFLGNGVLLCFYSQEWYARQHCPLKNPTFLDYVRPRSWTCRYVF
Amyloid-beta precursor protein, sequence (P05067 whole entry): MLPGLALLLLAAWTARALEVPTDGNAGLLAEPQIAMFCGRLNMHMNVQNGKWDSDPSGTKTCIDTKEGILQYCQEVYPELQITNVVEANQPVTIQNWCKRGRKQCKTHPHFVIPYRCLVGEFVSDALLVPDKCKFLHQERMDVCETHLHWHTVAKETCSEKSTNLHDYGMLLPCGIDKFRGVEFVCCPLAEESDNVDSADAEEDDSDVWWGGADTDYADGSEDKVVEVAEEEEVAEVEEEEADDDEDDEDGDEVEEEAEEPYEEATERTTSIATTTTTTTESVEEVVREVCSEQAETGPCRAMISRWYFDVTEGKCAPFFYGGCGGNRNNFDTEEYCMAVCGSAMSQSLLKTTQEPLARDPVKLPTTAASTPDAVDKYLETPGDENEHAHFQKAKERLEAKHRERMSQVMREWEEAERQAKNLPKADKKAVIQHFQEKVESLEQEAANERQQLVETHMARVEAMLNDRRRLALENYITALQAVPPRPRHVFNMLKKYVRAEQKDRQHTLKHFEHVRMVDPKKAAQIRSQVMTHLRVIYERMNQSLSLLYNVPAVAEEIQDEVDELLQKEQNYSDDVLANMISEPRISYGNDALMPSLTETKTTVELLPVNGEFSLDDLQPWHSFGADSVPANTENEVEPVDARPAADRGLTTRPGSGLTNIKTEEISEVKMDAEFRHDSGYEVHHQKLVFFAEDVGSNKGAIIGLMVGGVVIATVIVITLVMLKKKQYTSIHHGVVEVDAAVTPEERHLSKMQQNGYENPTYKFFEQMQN
Sodium/glucose cotransporter 2, sequence (P31639 whole entry): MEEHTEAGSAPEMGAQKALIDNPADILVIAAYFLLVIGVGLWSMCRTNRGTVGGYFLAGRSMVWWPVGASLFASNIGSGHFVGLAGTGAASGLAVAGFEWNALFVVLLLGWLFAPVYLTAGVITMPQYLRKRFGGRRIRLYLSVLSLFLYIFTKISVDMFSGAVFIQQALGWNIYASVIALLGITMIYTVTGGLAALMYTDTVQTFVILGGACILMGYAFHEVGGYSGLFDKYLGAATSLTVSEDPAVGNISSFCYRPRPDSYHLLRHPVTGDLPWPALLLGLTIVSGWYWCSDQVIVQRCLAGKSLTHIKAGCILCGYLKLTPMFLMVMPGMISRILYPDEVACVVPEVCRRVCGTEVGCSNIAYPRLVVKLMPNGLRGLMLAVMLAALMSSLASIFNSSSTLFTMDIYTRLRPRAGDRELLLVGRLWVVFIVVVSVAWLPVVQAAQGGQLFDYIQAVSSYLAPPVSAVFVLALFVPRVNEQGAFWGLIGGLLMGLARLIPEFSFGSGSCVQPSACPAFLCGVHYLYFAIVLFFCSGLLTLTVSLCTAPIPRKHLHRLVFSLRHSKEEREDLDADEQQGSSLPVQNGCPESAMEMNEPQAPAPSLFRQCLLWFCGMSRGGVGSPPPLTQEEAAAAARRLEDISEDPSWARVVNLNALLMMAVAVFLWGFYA

Compound: C[C@]1(COC(=O)Cc2ccc(O)c(O)c2)[C@H](C(=O)O)N2C(=O)/C(=C/c3ccccn3)[C@H]2S1(=O)=O
- IC50 [1]: 15 nM
- IC50 [2]: 3 nM
- IC50 [3]: 8 nM

Compound: CCCCC[C@H](O)/C=C/[C@H]1O[C@H]2C[C@H](O2)[C@@H]1C/C=C\CCCC(=O)O
- K [4]: 5.5 10^5/M/s
- EC50 [5]: 162 nM

Compound: CC1OCCO1
- K [6]: 5.1 10^3No_unit

Compound: CC(=O)NC[C@H]1CN(c2ccc(N3CCOCC3)c(F)c2)C(=O)O1 [LINEZOLID]
- pKa [7]: < 6
- degraded at 18 h [8]: 40%
- degraded at 18 h [9]: < 1%

Compound: Nc1nc(O)c2ncn(COC(CO)CO)c2n1 [GANCICLOVIR]
- solubility [10]: 2000 µg/mL (≈ 7.84 mM)

Compound: CCOc1ccc(Cc2cc([C@]34OC[C@](CO)(O3)[C@@H](O)[C@H](O)[C@H]4O)ccc2Cl)cc1 [ERTUGLIFLOZIN]
- half-life [11]: 4.1 h
- half-life [12]: 7.6 h

Compound: CCCS(=O)(=O)N1CCC(N2CCC(C3(c4ccc(S(=O)(=O)c5ccc6c(c5)OCO6)cc4)CCCO3)CC2)CC1 (centres undefined)
- Ki [13]: 5 nM

Compound: COc1ccc(C2=CN(CNC(C)=O)CC2=O)cc1
- pKa [7]: < 6
- degraded at 18 h [8]: 40%
- degraded at 18 h [9]: < 1%

Compound: CCC(=O)O[C@@H]([C@H]1C[C@@H](C)[C@H]2[C@H](O1)[C@H](O)[C@@]1(C)[C@@H]3CC[C@H]4C(C)(C)[C@@H](O[C@H]5CN(C6CN(C)C6)CCO5)CC[C@@]45C[C@@]35CC[C@]21C)C(C)(C)O
- bioavailability [14]: 45%
- Kp at 6 h [15]: 0.55
- IC50 [16]: 100 nM

Compound: O=C1c2c(O)c(=O)ccn2N([C@@H]2c3ccccc3SCc3c2ccc(F)c3F)[C@@H]2COCCN12 [BALOXAVIR]
- IC50 [17]: 2.5 nM
- half-life [18]: 79 h

Compound: CO[C@H]1O[C@@H]2O[C@@]3(C)CC[C@H]4[C@H](C)CC[C@@H]([C@H]1C)[C@@]24OO3
- IC50 [19]: 3.5 nM
- ED50 [20]: 8.4 µmol/kg
- half-life [21]: 11 h

Compound: Cc1cc(C)n(CCCC[C@H]2CO[C@H](c3nc(-c4ccccc4)c(-c4ccccc4)[nH]3)OC2)n1
- IC50 [22]: > 500 nM

Compound: CC[C@H](C)C[C@H](C)CCCCCCCCC(=O)N[C@H]1C[C@@H](O)[C@@H](NCCN)NC(=O)[C@@H]2[C@@H](O)CCN2C(=O)[C@H]([C@H](O)CCN)NC(=O)[C@H]([C@H](O)[C@@H](O)c2ccc(O)cc2)NC(=O)[C@@H]2C[C@@H](O)CN2C(=O)[C@H]([C@@H](C)O)NC1=O [CASPOFUNGIN]
- clearance [23]: 0.26 mL/min/kg
- IC50 [24]: 0.6 nM
- MFC [25]: 0.125 µg/mL (≈ 0.000114 mM)
- clearance [26]: 0.21 mL/min/kg

Compound: Nc1ccn([C@H]2CS[C@@H](CO)O2)c(=O)n1
- EC50 [27]: 200 nM
- IC50 [28]: 1220 nM

Compound: CC1(C)O[C@@H]2[C@@H](CO[C@@]3(COS(N)(=O)=O)OC(C)(C)O[C@@H]23)O1 [TOPIRAMATE]
- dose excreted [29]: 70%
- half-life [30]: 21 h
- bioavailability [31]: 80%
- Activity [32]: 80%

Compound: CCOc1ccc(Cc2cc([C@]34CO[C@](CO)(O3)[C@@H](O)[C@H](O)[C@H]4O)ccc2Cl)cc1
- IC50 [33]: 714 nM

Compound: c1ccc([C@]23OC[C@H](CCn4c2nc2ccccc24)O3)cc1
- remaining at 2 h [34]: 93.5%
- ED50 [35]: 30 mg/kg

Compound: C1COCO1
- K [6]: 1
